From patent US20180200257A1, “METHODS FOR THE TREATMENT OF INFLAMMATORY DISORDERS” (Galapagos NV, priority 2015, published 2018)

System: subjects with moderately to severely active RA who have an inadequate response to methotrexate (MTX)
Experiment: Study 1 (add-on to MTX) - Creatinine levels
Type: in vivo, human
Experimental: Double-blind, placebo-controlled add on study in subjects with moderately to severely active RA who have an inadequate response to methotrexate (MTX) (oral or parenteral).
595 subjects randomized to one of 6 dose regimens of Compound 1 (dosed as [Compound 1:HCl:3H2O]) (3 dose levels administered either once or twice daily) or placebo on top of each subject's stable dose of MTX.
Compound 1 (dosed as [Compound 1:HCl:3H2O]) is dosed for twelve weeks once daily (q.d.) (50 mg, 100 mg or 200 mg) or twice daily (b.i.d.) (25 mg, 50 mg or 100 mg); or placebo.
At Week 12, the subjects on placebo who have not achieved 20% improvement in swollen joint count (SJC66) and tender joint count (TJC68) are re-randomized automatically to receive Compound 1 (dosed as a [Compound 1:HCl:3H2O]) either at 100 mg q.d. or 50 mg b.i.d. doses in a blinded fashion; subjects on 50 mg q.d. who have not achieved 20% improvement in SJC66 and TJC68 will be assigned to 100 mg q.d. and subjects on 25 mg b.i.d. that have not achieved a 20% improvement in SJC66 and TJC68 will be assigned to 50 mg b.i.d. Subjects who switch treatment at week 12 are handled as if they discontinued at week 12 for the purpose of statistical analysis, whereas subjects in the other groups will maintain their randomized treatment until Week 24.
Creatinine levels determination is available at Quest Diagnostics, Clinical Trials, Quest House, 125-135 Staines Road, Hounslow, Middlesex, TW3 3JB, United Kingdom under Catalogue n# 82565. For Study 3, the data are obtained at BARC Europe, 3B,Industrie Park, Zwijnaarde, B-9052 Ghent, Belgium.
The Enzymatic method is based on the determination of sarcosine after conversion of creatinine with the aid of creatininase, creatinase, and sarcosine oxidase. The liberated hydrogen peroxide reacts with 4-aminophenazone and HTIB to form a quinone imine chromogen. The reaction is catalyzed by peroxidase. The color intensity is directly proportional to concentration of creatinine present and can be measured photometrically.

[1] = 2 × 25 mg b.i.d. (N = 86), week 0
[2] = 2 × 25 mg b.i.d. (N = 86), week 1
[3] = 2 × 25 mg b.i.d. (N = 86), week 2
[4] = 2 × 25 mg b.i.d. (N = 86), week 4
[5] = 2 × 25 mg b.i.d. (N = 86), week 8
[6] = 2 × 25 mg b.i.d. (N = 86), week 12
[7] = 2 × 50 mg b.i.d. (N = 85), week 0
[8] = 2 × 50 mg b.i.d. (N = 85), week 1
[9] = 2 × 50 mg b.i.d. (N = 85), week 2
[10] = 2 × 50 mg b.i.d. (N = 85), week 4
[11] = 2 × 50 mg b.i.d. (N = 85), week 8
[12] = 2 × 50 mg b.i.d. (N = 85), week 12
[13] = 2 × 100 mg b.i.d. (N = 84), week 0
[14] = 2 × 100 mg b.i.d. (N = 84), week 1
[15] = 2 × 100 mg b.i.d. (N = 84), week 2
[16] = 2 × 100 mg b.i.d. (N = 84), week 4
[17] = 2 × 100 mg b.i.d. (N = 84), week 8
[18] = 2 × 100 mg b.i.d. (N = 84), week 12
[19] = continued 50 mg q.d. (N = 63), week 0
[20] = continued 50 mg q.d. (N = 63), week 1
[21] = continued 50 mg q.d. (N = 63), week 2
[22] = continued 50 mg q.d. (N = 63), week 24
[23] = placebo switched to 50 mg b.i.d. at week 12 (N = 15), week 16
[24] = placebo switched to 50 mg b.i.d. at week 12 (N = 15), week 20
[25] = placebo switched to 50 mg b.i.d. at week 12 (N = 15), week 24

## O=C(Nc1nc2cccc(-c3ccc(CN4CCS(=O)(=O)CC4)cc3)n2n1)C1CC1 [Compound 1, cyclopropanecarboxylic acid {5-[4-(1,1-dioxo-thiomorpholin-4-ylmethyl)-phenyl]-[1,2,4]triazolo[1,5-a]pyridin-2-yl}-amide]
50 mg q.d. (N = 82), week 0
  Creatinine Mean CFB: 0 µmol/L
  Creatinine Mean percentage CFB: 0%
50 mg q.d. (N = 82), week 1
  Creatinine Mean CFB: 1 µmol/L
  Creatinine Mean percentage CFB: 3%
50 mg q.d. (N = 82), week 2
  Creatinine Mean CFB: 1 µmol/L
  Creatinine Mean percentage CFB: 2%
50 mg q.d. (N = 82), week 4
  Creatinine Mean CFB: 1 µmol/L
  Creatinine Mean percentage CFB: 3%
50 mg q.d. (N = 82), week 8
  Creatinine Mean CFB: 2 µmol/L
  Creatinine Mean percentage CFB: 4%
50 mg q.d. (N = 82), week 12
  Creatinine Mean CFB: 2 µmol/L
  Creatinine Mean percentage CFB: 3%
100 mg q.d. (N = 85), week 0
  Creatinine Mean CFB: 0 µmol/L
  Creatinine Mean percentage CFB: 0%
100 mg q.d. (N = 85), week 1
  Creatinine Mean CFB: 2 µmol/L
  Creatinine Mean percentage CFB: 4%
100 mg q.d. (N = 85), week 2
  Creatinine Mean CFB: 3 µmol/L
  Creatinine Mean percentage CFB: 5%
100 mg q.d. (N = 85), week 4
  Creatinine Mean CFB: 2 µmol/L
  Creatinine Mean percentage CFB: 4%
100 mg q.d. (N = 85), week 8
  Creatinine Mean CFB: 2 µmol/L
  Creatinine Mean percentage CFB: 4%
100 mg q.d. (N = 85), week 12
  Creatinine Mean CFB: 4 µmol/L
  Creatinine Mean percentage CFB: 7%
200 mg q.d. (N = 86), week 0
  Creatinine Mean CFB: 0 µmol/L
  Creatinine Mean percentage CFB: 0%
200 mg q.d. (N = 86), week 1
  Creatinine Mean CFB: 3 µmol/L
  Creatinine Mean percentage CFB: 6%
200 mg q.d. (N = 86), week 2
  Creatinine Mean CFB: 3 µmol/L
  Creatinine Mean percentage CFB: 6%
200 mg q.d. (N = 86), week 4
  Creatinine Mean CFB: 4 µmol/L
  Creatinine Mean percentage CFB: 7%
200 mg q.d. (N = 86), week 8
  Creatinine Mean CFB: 4 µmol/L
  Creatinine Mean percentage CFB: 7%
200 mg q.d. (N = 86), week 12
  Creatinine Mean CFB: 4 µmol/L
  Creatinine Mean percentage CFB: 8%
[1]
  Creatinine Mean CFB: 0 µmol/L
  Creatinine Mean percentage CFB: 0%
[2]
  Creatinine Mean CFB: 1 µmol/L
  Creatinine Mean percentage CFB: 2%
[3]
  Creatinine Mean CFB: 1 µmol/L
  Creatinine Mean percentage CFB: 2%
[4]
  Creatinine Mean CFB: 0 µmol/L
  Creatinine Mean percentage CFB: 2%
[5]
  Creatinine Mean CFB: 2 µmol/L
  Creatinine Mean percentage CFB: 3%
[6]
  Creatinine Mean CFB: 1 µmol/L
  Creatinine Mean percentage CFB: 3%
[7]
  Creatinine Mean CFB: 0 µmol/L
  Creatinine Mean percentage CFB: 0%
[8]
  Creatinine Mean CFB: 3 µmol/L
  Creatinine Mean percentage CFB: 5%
[9]
  Creatinine Mean CFB: 4 µmol/L
  Creatinine Mean percentage CFB: 6%
[10]
  Creatinine Mean CFB: 3 µmol/L
  Creatinine Mean percentage CFB: 5%
[11]
  Creatinine Mean CFB: 3 µmol/L
  Creatinine Mean percentage CFB: 6%
[12]
  Creatinine Mean CFB: 4 µmol/L
  Creatinine Mean percentage CFB: 7%
[13]
  Creatinine Mean CFB: 0 µmol/L
  Creatinine Mean percentage CFB: 0%
[14]
  Creatinine Mean CFB: 5 µmol/L
  Creatinine Mean percentage CFB: 8%
[15]
  Creatinine Mean CFB: 4 µmol/L
  Creatinine Mean percentage CFB: 8%
[16]
  Creatinine Mean CFB: 4 µmol/L
  Creatinine Mean percentage CFB: 8%
[17]
  Creatinine Mean CFB: 7 µmol/L
  Creatinine Mean percentage CFB: 12%
[18]
  Creatinine Mean CFB: 6 µmol/L
  Creatinine Mean percentage CFB: 12%
[19]
  Creatinine Mean CFB: 0.0 µmol/L
  Creatinine Mean percentage CFB: 0.0%
[20]
  Creatinine Mean CFB: 1.4 µmol/L
  Creatinine Mean percentage CFB: 3.0%
[21]
  Creatinine Mean CFB: 0.7 µmol/L
  Creatinine Mean percentage CFB: 1.6%
[22]
  Creatinine Mean CFB: 0.6 µmol/L
  Creatinine Mean percentage CFB: 2.1%
[23]
  Creatinine Mean CFB: 4.2 µmol/L
  Creatinine Mean percentage CFB: 8.2%
[24]
  Creatinine Mean CFB: 3.6 µmol/L
  Creatinine Mean percentage CFB: 7.2%
[25]
  Creatinine Mean CFB: 4.6 µmol/L
  Creatinine Mean percentage CFB: 8.7%
